Experimental data: ChEMBL document CHEMBL1250439, “2-phenyl-1-[4-(2-piperidine-1-yl-ethoxy)benzyl]-1H-benzimidazoles as ligands for the estrogen receptor: synthesis and pharmacological evaluation” (Bioorg Med Chem, 2010)
Calls of active or inactive are those of the source. No cut-off for these calls is given here.

Assays:
[1] = test system: MCF7; assay: Cytostatic activity against human MCF7 cells at 5 uM after 3 days by microtiter assay; format: functional
[2] = test system: MDA-MB-231; assay: Cytostatic activity against human MDA-MB-231 cells after 3 days by microtiter assay; format: functional, cell-based
[3] = test system: MCF7; assay: Cytostatic activity against human MCF7 cells at 10 uM after 3 days by microtiter assay; format: functional
[4] = target: T1, Adenosine receptor A1 (Rattus norvegicus, UniProt P25099); assay: Displacement of [3H]CCPA from adenosine A1 receptor in rat brain cortical membrane; format: cell membranes
T1 sequence (P25099 whole entry): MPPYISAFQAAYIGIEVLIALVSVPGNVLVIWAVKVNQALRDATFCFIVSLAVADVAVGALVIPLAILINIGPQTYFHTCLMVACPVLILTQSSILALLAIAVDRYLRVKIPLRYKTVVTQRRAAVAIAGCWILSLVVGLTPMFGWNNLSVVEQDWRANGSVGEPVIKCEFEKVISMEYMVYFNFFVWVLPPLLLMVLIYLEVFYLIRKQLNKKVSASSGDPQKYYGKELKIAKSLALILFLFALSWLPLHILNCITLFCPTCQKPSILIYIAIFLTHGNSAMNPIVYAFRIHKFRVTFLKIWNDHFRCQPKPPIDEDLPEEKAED

[5] = test system: Calf thymus DNA; assay: Binding affinity to calf thymus DNA assessed as change in melting temperature; format: nucleic-acid assay; conditions: Bos taurus
[6] = target: Estrogen receptor beta (Homo sapiens) (UniProt Q92731); assay: Displacement of [3H]E2 from human estrogen receptor beta relative to control
Chain of Estrogen receptor beta (Homo sapiens) (Q92731 whole entry): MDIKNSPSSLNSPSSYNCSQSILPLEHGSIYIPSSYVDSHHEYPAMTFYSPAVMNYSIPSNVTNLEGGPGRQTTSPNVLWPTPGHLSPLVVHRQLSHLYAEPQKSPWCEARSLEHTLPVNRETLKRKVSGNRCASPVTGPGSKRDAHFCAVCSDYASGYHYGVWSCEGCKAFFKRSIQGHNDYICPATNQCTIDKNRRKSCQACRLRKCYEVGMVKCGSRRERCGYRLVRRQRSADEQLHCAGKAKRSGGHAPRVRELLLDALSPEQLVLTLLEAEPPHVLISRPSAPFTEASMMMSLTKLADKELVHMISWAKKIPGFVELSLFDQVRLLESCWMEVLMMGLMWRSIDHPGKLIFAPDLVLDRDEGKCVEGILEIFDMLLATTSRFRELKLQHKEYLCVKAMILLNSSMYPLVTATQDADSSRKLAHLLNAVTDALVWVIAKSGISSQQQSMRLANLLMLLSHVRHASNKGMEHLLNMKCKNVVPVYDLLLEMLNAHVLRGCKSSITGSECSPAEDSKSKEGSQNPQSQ

[7] = target: T2, Estrogen receptor (Homo sapiens) (UniProt P03372); assay: Displacement of [3H]E2 from human estrogen receptor alpha relative to control
T2 sequence (whole entry): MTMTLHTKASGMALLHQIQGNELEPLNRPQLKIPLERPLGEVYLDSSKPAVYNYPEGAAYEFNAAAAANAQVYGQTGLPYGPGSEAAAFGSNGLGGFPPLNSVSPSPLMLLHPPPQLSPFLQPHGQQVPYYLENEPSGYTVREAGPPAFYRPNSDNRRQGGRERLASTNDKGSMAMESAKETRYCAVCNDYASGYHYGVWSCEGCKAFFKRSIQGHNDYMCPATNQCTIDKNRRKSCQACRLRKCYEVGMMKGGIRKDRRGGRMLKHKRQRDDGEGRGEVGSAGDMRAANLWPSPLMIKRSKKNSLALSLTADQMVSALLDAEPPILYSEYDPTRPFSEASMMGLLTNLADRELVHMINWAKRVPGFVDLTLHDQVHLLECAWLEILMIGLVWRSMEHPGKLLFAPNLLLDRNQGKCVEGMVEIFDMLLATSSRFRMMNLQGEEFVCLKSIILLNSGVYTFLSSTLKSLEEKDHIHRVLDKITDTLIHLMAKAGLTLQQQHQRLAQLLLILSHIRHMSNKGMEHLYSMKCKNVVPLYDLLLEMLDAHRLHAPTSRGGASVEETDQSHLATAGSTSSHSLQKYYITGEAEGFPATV

[8] = test system: MCF7; assay: Cytostatic activity against human MCF7 cells at 1 uM after 3 days by microtiter assay; format: functional
[9] = target: T3, Estrogen receptor (Homo sapiens, UniProt P03372); assay: Antagonist activity at human ERalpha expressed in human MCF7 cells at 10 uM by luciferase reporter gene assay; format: functional, cell-based
T3 sequence (P03372 whole entry): T2 sequence (whole entry)

[10] = target: T3, Estrogen receptor; assay: Antagonist activity at human ERalpha expressed in human MCF7 cells by luciferase reporter gene assay; format: functional, cell-based

In the case of `CCC(=C(c1ccc(O)cc1)c1ccc(OCCN(C)C)cc1)c1ccccc1`, the T/C [1] is reported as 0%, the Activity [2] is reported as “Active” and the Activity [3] is reported as “inactive”.

In the case of `Oc1ccc(-c2nc3ccc(O)cc3n2Cc2ccc(OCCN3CCCCC3)cc2)cc1`, the Ki [4] is reported as at most 3.7 µM and the ΔTm [5] is reported as 3 °C.

`CC/C(=C(\c1ccccc1)c1ccc(OCCN(C)C)cc1)c1ccccc1` [TAMOXIFEN] was tested, and the T/C [1] was 0%, the Activity [2] was “Active” and the Activity [3] was “inactive”.

For `Oc1ccc(-c2nc3cc(O)ccc3n2Cc2ccc(OCCN3CCCCC3)cc2)cc1`, the Ki [4] was 3.7 µM and the ΔTm [5] was 3 °C.

`Oc1ccc2c(c1)nc(-c1ccccc1)n2Cc1ccc(OCCN2CCCCC2)cc1` was tested, and the ΔTm [5] was 3 °C, the T/C [1] was 0% and the RBA [6] was 0.54%. For the same molecule, the RBA [7] was 0.43%, the T/C [3] was under 0% and the T/C [8] was 50%.

`Oc1ccc(-c2nc3ccccc3n2Cc2ccc(OCCN3CCCCC3)cc2)cc1` gave a ΔTm [5] of 3 °C, a T/C [1] of 0% and an IC50 [9] of 5.1 µM. The T/C [3] was under 0% and the T/C [8] was 50%.

In the case of `O=C(c1ccc(OCCN2CCCCC2)cc1)c1c(-c2ccc(O)cc2)sc2cc(O)ccc12` [RALOXIFENE], the T/C [1] is reported as 0%, the Activity [2] is reported as “Active” and the Activity [3] is reported as “inactive”.

Work on `Oc1ccc2nc(-c3ccccc3)n(Cc3ccc(OCCN4CCCCC4)cc3)c2c1` yielded a ΔTm [5] of 3 °C, an IC50 [10] of 0.31 µM and a T/C [1] of 0%. For the same molecule, the T/C [3] was under 0% and the T/C [8] was 50%.
